# ChEMBL document CHEMBL4177650, “Synthesis and biological evolution of hydrazones derived from 4-(trifluoromethyl)benzohydrazide” (Bioorg Med Chem Lett, 2017)
# Calls of active or inactive are those of the source. The rule behind the calls is not given here.
# How the values were obtained:
# [1] = test system: Mycobacterium tuberculosis; experiment: Antimycobacterial activity against Mycobacterium tuberculosis H37Rv 331/88 after 14 days by micromethod; assay type: functional; settings: H37Rv 331/88, 336 h
# [2] = test system: Mycobacterium kansasii; experiment: Antimycobacterial activity against Mycobacterium kansasii 6509/80 after 7 days by micromethod; assay type: functional; settings: 6509/80, 168 h
# [3] = test system: Klebsiella pneumoniae; experiment: Antibacterial activity against extended spectrum beta-lactamase-positive Klebsiella pneumoniae J 14368/08 after 24 to 48 hrs by microdilution broth method; assay type: functional, organism-based
# [4] = test system: Pseudomonas aeruginosa; experiment: Antibacterial activity against gram-negative Pseudomonas aeruginosa CCM 1961 after 48 hrs by microdilution broth method; assay type: functional, organism-based
# [5] = test system: Mycobacterium tuberculosis; experiment: Antimycobacterial activity against Mycobacterium tuberculosis H37Rv 331/88 after 21 days by micromethod; assay type: functional; settings: H37Rv 331/88, 504 h
# [6] = test system: Klebsiella pneumoniae; experiment: Antibacterial activity against gram-negative Klebsiella pneumoniae D 11750/08 after 24 to 48 hrs by microdilution broth method; assay type: functional, organism-based
# [7] = test system: Candida albicans; experiment: Antifungal activity against Candida albicans ATCC 44859 after 24 to 48 hrs by microdilution broth method; assay type: functional, organism-based
# [8] = test system: Mycobacterium kansasii; experiment: Antimycobacterial activity against Mycobacterium kansasii 6509/96 after 7 days by micromethod; assay type: functional; settings: 6509/96, 168 h
# [9] = test system: Mycobacterium kansasii; experiment: Antimycobacterial activity against Mycobacterium kansasii 6509/80 after 14 days by micromethod; assay type: functional; settings: 6509/80, 336 h
# [10] = test system: Mycobacterium kansasii; experiment: Antimycobacterial activity against Mycobacterium kansasii 6509/96 after 21 days by micromethod; assay type: functional; settings: 6509/96, 504 h
# [11] = test system: Mycobacterium avium; experiment: Antimycobacterial activity against Mycobacterium avium 330/88 after 21 days by micromethod; assay type: functional; settings: 330/88, 504 h
# [12] = test system: Mycobacterium kansasii; experiment: Antimycobacterial activity against Mycobacterium kansasii 6509/80 after 21 days by micromethod; assay type: functional; settings: 6509/80, 504 h
# [13] = test system: Lichtheimia corymbifera; experiment: Antifungal activity against Absidia corymbifera 272 after 24 to 48 hrs by microdilution broth method; assay type: functional, organism-based
# [14] = test system: Trichosporon asahii; experiment: Antifungal activity against Trichosporon asahii 1188 after 24 to 48 hrs by microdilution broth method; assay type: functional, organism-based
# [15] = test system: Mycobacterium kansasii; experiment: Antimycobacterial activity against Mycobacterium kansasii 6509/96 after 14 days by micromethod; assay type: functional; settings: 6509/96, 336 h
# [16] = test system: Aspergillus fumigatus; experiment: Antifungal activity against Aspergillus fumigatus 231 after 24 to 48 hrs by microdilution broth method; assay type: functional, organism-based
# [17] = test system: Mycobacterium avium; experiment: Antimycobacterial activity against Mycobacterium avium 330/88 after 14 days by micromethod; assay type: functional; settings: 330/88, 336 h
# [18] = test system: Trichophyton mentagrophytes; experiment: Antifungal activity against Trichophyton mentagrophytes 445 after 120 hrs by microdilution broth method; assay type: functional; settings: Trichophyton mentagrophytes, 445, 120 h
# [19] = test system: Pichia kudriavzevii; experiment: Antifungal activity against Candida krusei E28 after 24 hrs by microdilution broth method; assay type: functional; settings: E28, 24 h
# [20] = test system: Trichophyton mentagrophytes; experiment: Antifungal activity against Trichophyton mentagrophytes 445 after 72 hrs by microdilution broth method; assay type: functional; settings: Trichophyton mentagrophytes, 445, 72 h
# [21] = test system: Nakaseomyces glabratus; experiment: Antifungal activity against Candida glabrata 20/I after 24 hrs by microdilution broth method; assay type: functional
# [22] = test system: Candida tropicalis; experiment: Antifungal activity against Candida tropicalis 156 after 48 hrs by microdilution broth method; assay type: functional; settings: Candida tropicalis, 156, 48 h
# [23] = test system: Pichia kudriavzevii; experiment: Antifungal activity against Candida krusei E28 after 48 hrs by microdilution broth method; assay type: functional; settings: E28, 48 h
# [24] = test system: Candida tropicalis; experiment: Antifungal activity against Candida tropicalis 156 after 24 hrs by microdilution broth method; assay type: functional; settings: Candida tropicalis, 156, 24 h
# [25] = test system: Nakaseomyces glabratus; experiment: Antifungal activity against Candida glabrata 20/I after 48 hrs by microdilution broth method; assay type: functional
# [26] = test system: Enterococcus faecalis; experiment: Antibacterial activity against gram-positive Enterococcus faecalis J 14365/08 after 48 hrs by microdilution broth method; assay type: functional; settings: J 14365/08, 48 h
# [27] = test system: Staphylococcus epidermidis; experiment: Antibacterial activity against gram-positive Staphylococcus epidermidis H 6966/08 after 48 hrs by microdilution broth method; assay type: functional; settings: H 6966/08, 48 h
# [28] = test system: Staphylococcus epidermidis; experiment: Antibacterial activity against gram-positive Staphylococcus epidermidis H 6966/08 after 24 hrs by microdilution broth method; assay type: functional; settings: H 6966/08, 24 h
# [29] = test system: Staphylococcus aureus; experiment: Antibacterial activity against gram-positive Staphylococcus aureus CCM 4516/08 after 48 hrs by microdilution broth method; assay type: functional; settings: CCM 4516/08, 48 h
# [30] = test system: Staphylococcus aureus; experiment: Antibacterial activity against gram-positive Staphylococcus aureus CCM 4516/08 after 24 hrs by microdilution broth method; assay type: functional; settings: CCM 4516/08, 24 h
# [31] = test system: Escherichia coli; experiment: Antibacterial activity against gram-negative Escherichia coli CCM 4517 after 24 hrs by microdilution broth method; assay type: functional; settings: CCM 4517, 24 h
# [32] = test system: Escherichia coli; experiment: Antibacterial activity against gram-negative Escherichia coli CCM 4517 after 48 hrs by microdilution broth method; assay type: functional; settings: CCM 4517, 48 h
# [33] = test system: Staphylococcus aureus; experiment: Antibacterial activity against gram-positive methicillin-resistant Staphylococcus aureus H 5996/08 after 24 hrs by microdilution broth method; assay type: functional; settings: H 5996/08, 24 h
# [34] = test system: Staphylococcus aureus; experiment: Antibacterial activity against gram-positive methicillin-resistant Staphylococcus aureus H 5996/08 after 48 hrs by microdilution broth method; assay type: functional; settings: H 5996/08, 48 h
# [35] = test system: Enterococcus faecalis; experiment: Antibacterial activity against gram-positive Enterococcus faecalis J 14365/08 after 24 hrs by microdilution broth method; assay type: functional; settings: J 14365/08, 24 h
Compound,MIC [1] [µM],MIC [2] [µM],Activity [3],Activity [4],MIC [5] [µM],Activity [6],Activity [7],MIC [8] [µM],MIC [9] [µM],MIC [10] [µM],MIC [11] [µM],MIC [12] [µM],Activity [13],Activity [14],MIC [15] [µM],Activity [16],MIC [17] [µM],MIC [18] [µM],MIC [19] [µM],MIC [20] [µM],further results
O=C(N/N=C/c1cccc(Cl)c1)c1ccc(C(F)(F)F)cc1,> 125,125,inactive,inactive,> 125,inactive,inactive,> 125,> 125,> 125,> 125,> 125,inactive,inactive,> 125,inactive,> 125,–,–,–,–
O=C(N/N=C/c1ccc([N+](=O)[O-])cc1)c1ccc(C(F)(F)F)cc1,125,32,inactive,inactive,> 250,inactive,inactive,250,62.5,> 250,> 250,62.5,inactive,inactive,> 250,inactive,> 250,–,–,–,–
OC(Cn1cncn1)(Cn1cncn1)c1ccc(F)cc1F [FLUCONAZOLE],–,–,–,–,–,–,–,–,–,–,–,–,–,–,–,–,–,125,125,7.81,MIC [21]: 31.2 µM; MIC [22]: > 500 µM; MIC [23]: 250 µM; MIC [24]: > 500 µM; MIC [25]: 500 µM
CC(C)=NNC(=O)c1ccc(C(F)(F)F)cc1,> 125,125,inactive,inactive,> 125,inactive,inactive,> 125,> 125,> 125,> 125,> 125,inactive,inactive,> 125,inactive,> 125,> 500,> 500,> 500,MIC [26]: 500 µM; MIC [27]: > 500 µM; MIC [28]: 500 µM; MIC [29]: > 500 µM; MIC [30]: > 500 µM; MIC [31]: > 500 µM; MIC [32]: > 500 µM; MIC [33]: > 500 µM; MIC [21]: > 500 µM; MIC [22]: > 500 µM; MIC [23]: > 500 µM; MIC [34]: > 500 µM; MIC [24]: > 500 µM; MIC [25]: > 500 µM; MIC [35]: 250 µM
O=C(NN=C1CCCC1)c1ccc(C(F)(F)F)cc1,500,500,–,–,500,–,–,500,> 1000,1000,> 125,> 1000,–,–,1000,–,> 125,–,–,–,–
O=C(N/N=C/c1ccc(O)cc1)c1ccc(C(F)(F)F)cc1,125,62.5,inactive,inactive,125,inactive,inactive,250,125,500,500,125,inactive,inactive,500,inactive,250,> 125,> 125,> 125,MIC [26]: > 250 µM; MIC [27]: 125 µM; MIC [28]: 125 µM; MIC [29]: 250 µM; MIC [30]: 250 µM; MIC [31]: > 250 µM; MIC [32]: > 250 µM; MIC [33]: 250 µM; MIC [21]: > 125 µM; MIC [22]: > 125 µM; MIC [23]: > 125 µM; MIC [34]: 250 µM; MIC [24]: > 125 µM; MIC [25]: > 125 µM; MIC [35]: > 250 µM
